For one data set, the system named is ID1. The experiment in a line: qRT-PCR analysis of ID1 in THP-1 cells. It is filed as cell-based, human. The following applies: ATRA treatment. On the procedure:
(§1) Cultured cells were lysed in Macherey-Nagel RAI buffer containing 1% β-mercaptoethanol and total RNAs were isolated using NucleoSpin RNA isolation kit (Macherey-Nagel 740955). Reverse transcription and PCR amplification were performed. Primers used in this study are listed in Supplementary Table 1. Graphs show relative gene expressions to GAPDH. […] Statistical analyses were performed using PRISM7 software with unpaired t-test or one-way ANOVA test.
A general note: In qPCR the cycle at which signal appears reflects the starting amount.

For another data set, the system named is Smad1. In words: Western blot of pSmad1 and tSmad1 in THP-1 cells. In kind it is cell-based, human. Conditions: THP-1 cells. On the procedure: Cultured cells were rinsed with cold PBS and lysed in Triton lysis buffer ([…] Tris-Cl, pH 7.5, 1% Triton X-100, 150 mM NaCl, 1 mM EDTA, 1 mM EGTA, 1 mM β-glycerophosphate, 1 mM Na3 VO4) or RIPA buffer with complete Protease Inhibitor Cocktail (Roche 11697498001). Lysates were mixed with Laemmli buffer with β-mercaptoethanol and boiled at 95° C. for 5 min to prepare SDS-PAGE samples. Western blot images were acquired with SuperSignal West pico ECL (ThermoFisher 34580) or Clarity Western ECL (Biorad 1705061) using LAS-3000 system (FujiFilm). Quantification of blots was done using ImageJ software.
(§2) THP-1 cells were treated with 0.3, 1.0 and 3.0 μg ml^−1 goat polyclonal anti-RSPO2 antibodies (R&D systems AF3266) or goat polyclonal GFP antibodies (ABIN 100085). After 48 hours, medium was replaced including fresh antibodies—and incubated another 24 hours. Western blot analysis and FACS analyses were performed as discussed above.
On the technique in general: Immunoblotting shows a protein as a band on a membrane.

The test system of the next data set is THP-1 cells. The experiment in a line: Monocyte-macrophage differentiation of THP-1 cells (FACS / qRT-PCR of CD14, CD11B). In kind it is cell-based, human. The protocol:
as §1
For analyzing macrophage differentiation of THP-1, cells were harvested, pelleted and resuspended in ice-cold blocking buffer (PBS supplemented with 1% BSA and 0.1% NaN3). Cells were treated with Fc Receptor Binding Inhibitor as recommended by the manufacturer (eBioscience 14916173) and stained directly with FITC/APC-conjugated antibodies diluted in blocking buffer or with non-conjugated primary antibodies followed by fluorochrome-labeled secondary antibodies. Isotype-matched antibodies were used as controls. Dead cells were excluded by counterstaining with propidium iodide. For analyzing apoptosis of THP-1, cells were fixed in 4% PFA, permeabilized by MeOH and blocked with PBS supplemented with 1% BSA and 0.1% Tween-20. Cells were stained with anti-active Caspase-3 antibody and fluorochrome-labeled secondary antibody. FACS Samples were analyzed with FACSCalibur or FACSCanto (BD Biosciences). 10,000 events per samples were acquired, and results were processed with Cell Quest or FACSDiva software (BD Biosciences). For BMP4 stimulation, cells were treated with 5 and 25 ng ml^−1 recombinant human BMP4 protein (R&D systems 314-BP). 100, 300 and 1000 nM LDN […] (Tocris 6053) were used for rescue assay. For the THP-1 cell number quantification and differentiation validation in vivo, bone marrow cells were harvested from tibias of NSG mice and red blood cells were removed by ACK Lysing Buffer (Gibco A1049201). Cells were stained and analyzed as above. Here, 50,000 PI-negative events per samples were acquired.
as §2
The sequences of shRSPO2 and shControl (Table 1) were synthesized, inserted into the transfer plasmid Tet-pLKO-puro (Addgene 21915) and validated by sequencing. Lentivirus was produced with the 3rd generation lentiviral system according to the protocol available at the Trono lab as described (www.epfl.ch/labs/tronolab/). THP-1 cells were infected with lentivirus with 8 μg ml^−1 Polybrene (Sigma TR-1003) and selected with 0.5 μg ml^−1 puromycin (Calbiochem 540411). Single cell clones were obtained by limiting dilutions. The shRNA expression of clones was validated by monitoring RSPO2 expression after doxycycline treatment (1.0 μg ml^−1) for 3 days.

Another data set has as its system AML cells. In words: Cytarabine (AraC) treatment of THP-1 TetOn-shRNA clones. It is filed as cell-based. Conditions: Dox and AraC treatment.
For the next data set, the system named is BMP signaling. The experiment in a line: BMP-reporter assay in Xenopus embryos. In kind it is in vivo, Xenopus laevis. The protocol: In vitro fertilization, microinjection and culture of Xenopus embryos were performed as previously described (Gawantka et al. (1995), EMBO J 14, 6268-6279). X. laevis embryos were microinjected with reporter DNAs, in vitro transcribed mRNAs or antisense morpholino oligonucleotide (Mo) using Harvard Apparatus microinjection system. Mos for rspo2 (Kazanskaya et al (2004, loc. cit.), lrp6, chordin, bmp4, znrf3 and standard control were purchased from GeneTools. rspo2^ΔTSP Mo was designed based on rspo2 sequence. X. laevis 4-cell stage embryos were microinjected 5 nl per each blastomere equatorially and cultured until indicated stages. Equal amount of total mRNA or Mo were injected by adjustment with ppl or standard control Mo. Scoring of phenotypes was executed blind, and data are representative images from two independent experiments. Embryos in each image were selected using Magnetic Lasso tool or Magic Wand tool of Adobe Photoshop CS6 software, and pasted into the uniform background color for presentation. Statistical analyses show Chi-square tests.
In general terms: A reporter such as luciferase makes a cellular process visible.

The subject of a further data set is ALK3. In words: Western blot analysis of ALK3 in injected Xenopus embryos. It is filed as in vivo, Xenopus laevis. The following applies: Xenopus embryos coinjected with alk3-EYFP mRNA. The protocol:
Injected Xenopus embryos were harvested at stage 15 to 18, homogenized in NP-40 lysis buffer (2% NP-40, 20 mM Tris-HCl pH 7.5, 150 mM NaCl, 10 mM NaF, 10 mM Na3VO4, 10 mM sodium pyrophosphate, 5 mM EDTA, 1 mM EGTA, 1 mM PMSF, and complete Protease Inhibitor Cocktail with a volume of 20 μl per embryo. Lysates were cleared with CFC-113 (Honeywell 34874), followed by centrifugation (14,000 rpm, 10 min at 4° C.), boiling at 95° C. for 5 min with NuPAGE Sample Buffer. 0.5-1 embryos per lane were loaded for SDS-PAGE analysis.

Data set [1] has as its target T1, human ALK3-HA expressed in HEK293T cells (human, UniProt P36894 24-532).
T1 construct: whole, on cells; also called HA-tagged ALK3; BMPR1A
The experiment in a line: cell surface binding assay on HEK293T cells transfected with human ALK3-HA. On the procedure:
Cell surface binding assays were carried essentially out as previously described (Dosch et al. (1997), Development 124, 2325-2334). In brief, human ALK3-HA and Xenopus tropicalis LGR4 DNA were transfected in HEK293T cells, and incubated with 1.5 U ml⁻¹ conditioned media for 3 hours on ice. After several washes and crosslinking, cells were treated with 2 mM Levamisole for 20 min to inactivate endogenous AP activities and developed with BM-Purple (Sigma 11442074001). Cells were mounted with Fluoromount G. Images were obtained using LEICA DMIL microscope/Canon DS126311 camera.

The target of data set [2] is T2, recombinant human RSPO2 (Peprotech 120-43) (human, UniProt Q6UXX9 22-243).
T2 construct: also called R-spondin 2
In words: in vitro binding assay: plate-coated recombinant RSPO2, ALK3^ECD-AP conditioned medium, bound AP chemiluminescence; Scatchard plot. The protocol:
High binding 96-well plates (Greiner M5811) were coated with 2 μg ml⁻¹ of recombinant human RSPO1 (Peprotech 120-38), RSPO2 (Peprotech 120-43), RSPO3 (Peprotech 120-44) or FGF8b (Peprotech 100-25) recombinant protein reconstituted in bicarbonate coating buffer (50 mM NaHCO₃, pH 9.6) overnight at 4° C. Coated wells were washed three times with TBST (TBS, 0.1% Tween-20) and blocked with 5% BSA in TBST for 1 hour at room temperature. 1.5 U ml⁻¹ of ALK3^ECD-AP or control conditioned medium was incubated overnight at 4° C. Wells were washed six times with TBST and bound AP activity was measured by the chemiluminescent SEAP Reporter Gene Assay kit (Abcam ab 133077). For ZNRF3-ALK3 binding assay, plates were coated with recombinant human ZNRF3 Fc Chimera protein (R&D systems 7994-RF). ALK3^ECD-AP was preincubated with RSPO2-Flag, RSPO2^ΔTSP-Flag conditioned medium or recombinant RSPO protein prior to treatment. Control conditioned medium and vesicles were used as control. […] Statistical analyses show unpaired t-tests.

Experimental findings from patent publication US20250346890A1, “LEUKEMIA TREATMENT” (Deutsches Krebsforschungszentrum, priority 2019, published 2025) are described below.

With `CC1=C(/C=C/C(C)=C/C=C/C(C)=C/C(=O)O)C(C)(C)CCC1` [ATRA, (2E,4E,6E,8E)-3,7-dimethyl-9-(2,6,6-trimethylcyclohexen-1-yl) nona-2,4,6,8-tetraenoic acid], the ID1 expression result in the data set with ID1 is “induced”. In the data set with Smad1, the Smad1-phosphorylation result was “induced Smad1-phosphorylation”. Besides, the “macrophage differentiation, combination with Dox-induced shRSPO2” value with THP-1 cells (THP-1 TetOn-shRSPO2 clones, Dox+ATRA) is “cooperated in inducing macrophage differentiation”. Further, the CD11B expression entry in the data set on THP-1 cells (THP-1 cells, ATRA treatment) is recorded as “induced”.

In the case of `Nc1ccn([C@@H]2O[C@H](CO)[C@@H](O)[C@@H]2O)c(=O)n1` [cytarabine], the “sensitivity of AML cells to cytarabine upon loss of RSPO2” value in the data set on AML cells was “sensitize”.

Turning to “rspo2 Mo: antisense morpholino against Xenopus rspo2, GCCGTCCAAATGCAGTTTCAAC (SEQ ID NO:9) (all phosphorodiamidate morpholino (PMO))”, the “endogenous BMP signaling” value with BMP signaling (Xenopus neurulae, injection) is recorded as “increased endogenous BMP signaling”. In addition, in the data set with BMP signaling (coinjection with bmp4 Mo), the “BMP signaling reporter, coinjection of bmp4 Mo and rspo2 Mo” value is reported as “canceled each other out”. Moreover, the ALK3-EYFP protein levels entry with ALK3 is given as “increased ALK3-EYFP protein levels”.

B1: RSPO2^ΔTSP (human RSPO2 TSP1 domain deletion mutant) (ligand, not shown: small tags and cut ends)
chain: QGNRWRRSKRASYVSNPICKGCLSCSKDNGCSRCQQKLFFFLRREGMRQYGECLHSCPSGYYGHRAPDMNRCARCRIENCDSCFSKDFCTKCKVGFYLHRGRCFDECPDGFAPLEETMECVE
notes: also called RSPO2^ΔTSP-Flag
As to B1, the binding result in data set [1] is “no binding (tested: 1.5 U ml^-1 conditioned media)”.

B2: ALK3^ECD-AP (extracellular domain of ALK3 fused to alkaline phosphatase, conditioned medium) (receptor, UniProt P36894 24-152, looked up)
chain: QNLDSMLHGTGMKSDSDQKKSENGVTLAPEDTLPFLKCYCSGHCPDDAINNTCITNGHCFAIIEEDDQGETTLASGCMKYEGSDFQCKDSPKAQLRRTIECCRTNLCNQYLQPTLPPVVIGPFFDGSIR
notes: extracellular domain; also called BMPR1A extracellular domain; not shown: alkaline phosphatase (AP) fusion partner from AP-pCS2+
In general, Kd refers to the constant that tells how readily two partners part at equilibrium. For B2, the Kd in data set [2] is roughly 4.8 nM.
